Test [1] addresses Epidermal growth factor receptor (Homo sapiens, UniProt P00533). Nature of the test: WT-EGFR Kinase Assay. The procedure:
For the assay 50 nl of a 100 fold concentrated solution of the test compound in DMSO was pipetted into either a black low volume 384 well microtiter plate or a black 1536 well microtiter plate (both Greiner Bio-One, Frickenhausen, Germany), 2 μL of a solution of EGFR in aqueous assay buffer [50 mM Hepes pH 7.0, 10 mM MgCl2, 1 mM dithiothreitol, 0.5 mM EGTA, 0.3 mM activated sodium ortho-vanadate, 0.005% (w/v) bovine serum albumin, 0.005% (v/v) Tween-20] were added and the mixture was incubated for 15 min at 22° C. to allow pre-binding of the test compounds to the enzyme before the start of the kinase reaction. […] The concentration of EGFR was adjusted depending of the activity of the enzyme lot and was chosen appropriate to have the assay in the linear range, typical concentration was […]. The reaction was stopped by the addition of 3 μL of a solution of HTRF detection reagents (83.3 nM streptavidine-XL665 [Cisbio Bioassays, Codolet, France] and 1.67 nM PT66-Tb-Cryptate, a terbium-cryptate labelled anti-phospho-tyrosine antibody from Cisbio Bioassays [instead of the PT66-Tb-cryptate PT66-Eu-Chelate from Perkin Elmer can also be used]) in an aqueous EDTA-solution (133.3 mM EDTA, 0.2% (w/v) bovine serum albumin in 50 mM HEPES pH 7.5).

The target of test [2] is T1, Casein kinase I isoform alpha (Homo sapiens, UniProt P48729). Nature of the test: CSNK1A1 1uM ATP Assay. The procedure: The concentration of CSNK1A1 was adjusted depending of the activity of the enzyme lot and was chosen appropriate to have the assay in the linear range, a typical concentration is about 0.4 ng/μL. The reaction was stopped by the addition of 2.5 μL of ADP-Glo-reagent (1:1.5 fold diluted with water) and the resulting mixture was incubated at 22° C. for 1 h to convert the ATP not consumed in the kinase reaction completely to […]. […] The amount of emitted light was taken as a measure for the amount of ADP generated and thereby for the activity of the CSNK1A1.
T1 sequence (P48729 whole entry, canonical isoform): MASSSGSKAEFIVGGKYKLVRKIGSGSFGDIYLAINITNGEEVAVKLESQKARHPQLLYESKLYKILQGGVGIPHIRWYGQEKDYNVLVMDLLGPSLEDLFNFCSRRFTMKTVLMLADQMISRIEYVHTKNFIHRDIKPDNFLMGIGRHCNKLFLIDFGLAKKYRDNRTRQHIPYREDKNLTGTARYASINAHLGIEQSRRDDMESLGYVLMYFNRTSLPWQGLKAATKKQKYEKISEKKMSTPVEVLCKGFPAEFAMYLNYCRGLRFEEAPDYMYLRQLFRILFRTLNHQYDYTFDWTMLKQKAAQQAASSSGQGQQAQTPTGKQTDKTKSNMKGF

In test [3] the target is Casein kinase I isoform delta (Homo sapiens, UniProt P48730). Nature of the test: CSNK1D Assay. The procedure:
As substrate for the kinase reaction the biotinylated peptide Btn-Ahx-[…] […] The concentration of CSNK1D was adjusted depending of the activity of the enzyme lot and was chosen appropriate to have the assay in the linear range, a typical concentration is about 0.5 ng/μL. The reaction was stopped by the addition of 2.5 μL of “ADP-Glo-reagent” (1:1.5 fold diluted with water) and the resulting mixture was incubated at 22° C. for 1 h to convert the ATP not consumed in the kinase reaction completely to […]. […] The amount of emitted light was taken as a measure for the amount of ADP generated and thereby for the activity of the CSNK1D.

Test [4] deals with T1, Casein kinase I isoform alpha. Nature of the test: CSNK1A1 High ATP Assay. The source says:
Recombinant fusion protein of N-terminal Glutathion-S-Transferase (GST) and full-length human CSNK1A1, expressed by baculovirus infected insect cells and purified via Glutathion affinity chromatography, was purchased from Life Technologies (product no. PV4174) and used as enzyme. As substrate for the kinase reaction the biotinylated peptide biotin-Ahx-KRRRAL-pS-VASLPGL (C-terminus in amide form) was used which can be purchased e.g. from the company Biosyntan (Berlin-Buch, Germany).[2164]For the assay 50 nl of a 100 fold concentrated solution of the test compound in DMSO was pipetted into a white low volume 384-well microtiter plate (Greiner Bio-One, Frickenhausen, Germany), 2 μL of a solution of CSNK1A1 in aqueous assay buffer [50 mM HEPES pH 7.5, 10% (v/v) glycerol, 10 mM MgCl2, 50 mM NaCl, 1 mM dithiothreitol, 0.01% (w/v) bovine serum albumin, 0.01% (v/v) Triton X-100] were added and the mixture was incubated for 15 min at 22° C. to allow pre-binding of the test compounds to the enzyme before the start of the kinase reaction. […] The concentration of CSNK1A1 was adjusted depending of the activity of the enzyme lot and was chosen appropriate to have the assay in the linear range, a typical concentration is about 0.4 ng/μL. The reaction was stopped by the addition of 2.5 μL of ADP-Glo-reagent (1:1.5 fold diluted with water) and the resulting mixture was incubated at 22° C. for 1 h to convert the ATP not consumed in the kinase reaction completely […]. Subsequently 2.5 μL of the kinase detection reagent (1.2 fold more concentrated than recommended by the producer) were added, the resulting mixture was incubated at 22° C. for 1 h and then the luminescence measured with a suitable measurement instrument (e.g. Viewlux™ from Perkin-Elmer). The amount of emitted light was taken as a measure for the amount of ADP generated and thereby for the activity of the CSNK1A1.

Epidermal growth factor receptor, sequence (P00533 whole entry): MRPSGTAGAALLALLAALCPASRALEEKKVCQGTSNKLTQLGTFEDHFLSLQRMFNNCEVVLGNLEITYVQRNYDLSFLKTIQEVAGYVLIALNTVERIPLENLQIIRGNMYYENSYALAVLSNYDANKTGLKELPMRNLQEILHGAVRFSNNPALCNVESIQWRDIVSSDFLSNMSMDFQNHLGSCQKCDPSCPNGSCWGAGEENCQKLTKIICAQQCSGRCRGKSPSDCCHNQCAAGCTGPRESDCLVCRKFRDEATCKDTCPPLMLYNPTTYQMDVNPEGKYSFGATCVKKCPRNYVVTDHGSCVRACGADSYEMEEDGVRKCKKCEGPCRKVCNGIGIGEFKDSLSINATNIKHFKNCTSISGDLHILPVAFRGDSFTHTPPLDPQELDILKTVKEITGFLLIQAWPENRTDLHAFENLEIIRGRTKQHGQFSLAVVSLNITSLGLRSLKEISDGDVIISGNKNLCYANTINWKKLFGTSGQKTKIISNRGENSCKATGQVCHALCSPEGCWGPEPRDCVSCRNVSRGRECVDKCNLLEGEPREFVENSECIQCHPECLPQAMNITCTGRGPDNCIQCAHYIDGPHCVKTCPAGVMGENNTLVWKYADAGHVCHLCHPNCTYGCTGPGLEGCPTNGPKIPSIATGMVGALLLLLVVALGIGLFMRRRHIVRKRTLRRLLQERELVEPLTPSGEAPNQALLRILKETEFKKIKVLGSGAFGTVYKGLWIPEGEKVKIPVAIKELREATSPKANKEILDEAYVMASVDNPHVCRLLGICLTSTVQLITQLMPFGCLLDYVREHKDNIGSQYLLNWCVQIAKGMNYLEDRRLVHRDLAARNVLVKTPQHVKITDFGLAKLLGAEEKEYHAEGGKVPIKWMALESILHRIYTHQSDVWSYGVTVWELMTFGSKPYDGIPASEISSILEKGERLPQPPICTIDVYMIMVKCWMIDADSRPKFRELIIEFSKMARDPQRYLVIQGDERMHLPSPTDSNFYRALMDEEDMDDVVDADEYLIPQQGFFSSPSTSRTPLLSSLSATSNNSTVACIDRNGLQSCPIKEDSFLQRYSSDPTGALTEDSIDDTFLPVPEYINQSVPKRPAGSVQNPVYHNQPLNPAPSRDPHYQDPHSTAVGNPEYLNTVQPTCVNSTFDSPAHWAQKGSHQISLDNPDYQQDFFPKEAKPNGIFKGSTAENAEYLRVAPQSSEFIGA
Casein kinase I isoform delta, sequence (P48730 whole entry, canonical isoform): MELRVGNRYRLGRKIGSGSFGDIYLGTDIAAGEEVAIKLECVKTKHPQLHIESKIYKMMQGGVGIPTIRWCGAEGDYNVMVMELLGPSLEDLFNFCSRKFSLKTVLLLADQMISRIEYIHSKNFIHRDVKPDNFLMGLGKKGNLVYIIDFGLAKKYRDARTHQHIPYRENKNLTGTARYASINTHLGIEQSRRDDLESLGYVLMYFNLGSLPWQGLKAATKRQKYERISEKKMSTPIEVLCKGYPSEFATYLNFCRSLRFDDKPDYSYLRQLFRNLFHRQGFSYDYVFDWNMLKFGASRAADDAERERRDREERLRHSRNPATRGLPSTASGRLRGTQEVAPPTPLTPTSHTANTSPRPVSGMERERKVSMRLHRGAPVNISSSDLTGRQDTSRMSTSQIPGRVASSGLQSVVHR

For the compound `Cn1ccc2[nH]c(-c3ccnc(NC(=O)Cc4ccc(F)cc4)c3)c(-c3ccccc3)c2c1=O` [US20230322767, Example 5], the figures for the IC50 in test [1], in test [2] and in test [3] were > 20000 nM, 0.86 nM and 2.5 nM, respectively.

On to `CN1CCc2[nH]c(-c3ccnc(NC(=O)C4CC4)c3)c(Nc3ccccc3)c2C1=O`, for which the IC50 in test [4] was < 3.43 nM; in test [1], 42.6 nM.

For the compound `CN1CCc2[nH]c(-c3ccnc(NC(=O)[C@H]4C[C@H]4F)c3)c(Nc3ccccc3)c2C1=O` (relative stereo; form 2) [US20230322767, Example No. 25 WO 2016/120196], the IC50 in test [4] was 62.5 nM; in test [1], 321 nM.

Consider `O=c1[nH]ccc2[nH]c(-c3ccncc3F)c(Nc3ccccc3)c12` [US20230322767, Example No. 16 WO 2016/120196], for which the IC50 was determined as 40.3 nM in test [4] and 303 nM in test [1].

With `CN1CCc2[nH]c(-c3ccnc(NC(=O)[C@H]4C[C@H]4F)c3)c(Nc3ccccc3)c2C1=O` (relative stereo; form 1) [US20230322767, Example No. 40 WO 2016/120196], the IC50 in test [4] amounted to 24.1 nM; in test [1], 85.5 nM.

The IC50 is the point on the concentration scale where inhibition reaches its midpoint. Low readings indicate greater potency in that assay, high ones weaker potency in that assay.

For the origin of these results see BindingDB's records for patent US20230322767 (Bayer Aktiengesellschaft, 2023).
